The test system of data set [1] is Giardia intestinalis. Kind of data set: Antiprotozoal activity against Giardia lamblia WB6 trophozoites after 48 hrs. It is filed as functional. The conditions noted are these: Giardia duodenalis, WB6, 48 h.
Data set [2] deals with Giardia intestinalis. As to the kind of experiment: Antiprotozoal activity against Giardia lamblia WB6 assessed as inhibition of cyst formation at 10 uM after 4 days relative to control. Type of data set: functional. The conditions noted are these: Giardia duodenalis, WB6, 96 h.
Data set [3] can be described thus: Toxicity in bovine MDBK cells. Conditions: bovine (Bos taurus).
Data set [4] in a line: Therapeutic index, ratio of IC50 for bovine MDBK cells to MIC for Giardia lamblia WB6. Type of data set: cell-based. Conditions: cattle.

Values after ≈ are worked out from the molar mass of the structure shown.

The values that follow come from ChEMBL document CHEMBL1139123, “Rational design and synthesis of novel nucleotide anti-Giardia agents” (Bioorg Med Chem Lett, 2007).

For the molecule `CC(=O)N[C@@H]1[C@@H](O)[C@H](O)[C@@H](CO)O[C@@H]1CCO`, inhibition of growth in data set [1] (MIC) required 3.9 µM (≈ 0.972 µg/mL). Also, the inhibition at 10 µM in data set [2] turned out to be 56.2%. For the same molecule, the IC50 in data set [3] was found to be 125 µM. In addition, in data set [4], the selectivity ratio was found to be 32.
In data set [1], `C=CC[C@H]1O[C@H](CO)[C@@H](O)[C@H](O)[C@H]1NC(C)=O` displayed an MIC of 15.6 µM (≈ 3.83 µg/mL). In addition, the inhibition at 10 µM in data set [2] stood at 9.7%. This molecule had an IC50 in data set [3] of 60 µM. In addition, the selectivity ratio in data set [4] stood at 17.
Molecule `CC(=O)N[C@@H]1[C@@H](O)[C@H](O)[C@@H](CO)O[C@@H]1CCOP(=O)(O)CC[C@H]1O[C@@H](n2ccc(=O)[nH]c2=O)[C@H](O)[C@@H]1O` returned an MIC in data set [1] of 3.9 µM (≈ 2.16 µg/mL). The inhibition at 10 µM in data set [2] was determined as 27.5%. The molecule also had an IC50 in data set [3] of 250 µM. The selectivity ratio in data set [4] amounted to 64.
